{
  "source": "paper PMC4129108",
  "about": "“The natural triterpene 3β,6β,16β-trihydroxy-lup-20(29)-ene obtained from the flowers of Combretum leprosum induces apoptosis in MCF-7 breast cancer cells” (BMC Complementary and Alternative Medicine, 2014)",
  "assay_type_in_all_cases": "cell-based, human",
  "key": {"MCF-7 cells [1]": {"test_system": "MCF-7 cells", "assay": "Apoptosis by flow cytometry (Annexin V-PE/7-AAD)", "settings": "MCF-7, 24 h", "experimental": "(§1) Cells (2 × 10^5 cells/mL) were seeded on 6-well tissue culture plates, and grown for 1 day up to 70–80% confluence before treatment with the test substance. The TTHL was added to medium with FBS to obtain the different concentrations, and cells were treated at 37°C for 24 h in humidified atmosphere containing 5% CO2.\nAnnexin V-PE was used in conjunction with a vital dye, 7-AAD, to distinguish apoptotic (Annexin V-PE positive, 7-AAD negative) from necrotic (Annexin V-PE positive, 7-AAD positive) cells. After treatment, cells were trypsinized, collected and resuspended in 40 μL of binding buffer with 2 μL Annexin V-PE. Cells were incubated for 15 min in the dark at room temperature. After incubation, 160 μL of binding buffer and 2 μL of 7-AAD were added. Cells were incubated for 5 min and additional 200 μL of binding buffer were added. Before analysis, cells were filtered through a cell strainer cap fitted to a polystyrene round bottom flow cytometric tube. Data were collected and analyzed by a FACS Calibur flow cytometer with CellQuest software, in a total of 10,000 events per sample; fluorescence was measured and the percentage of viable, early apoptotic, late apoptotic and necrotic cells was determined."}, "MCF-7 cells [2]": {"test_system": "MCF-7 cells", "assay": "Alkaline comet assay", "settings": "MCF-7, 24 h", "experimental": "as §1\nThe alkaline comet assay was performed as previously described. Briefly, 10 μL of cell suspension (1 × 10^4 cells) treated with TTHL were mixed with 90 μL LMP agarose, spread on a normal agarose precoated microscope slide, and placed at 4°C for 5 min to allow for solidification. Cells were lysed in high concentration of salt and detergent (2.5 M NaCl, 100 mM Na2EDTA, 10 mM Tris with 1% Triton X-100 and 10% DMSO freshly added) for 2 h. Slides were removed from lysing solution and washed three times with PBS. Subsequently, cells were exposed to alkali conditions (300 mM NaOH/1 mM Na2EDTA, pH >13, 30 min, 4°C) to allow DNA unwinding and expression of alkali-labile sites. Electrophoresis was conducted for 25 min at 25 V and 300 mA ([…]). After electrophoresis, the slides were neutralized and silver stained. One hundred cells were scored visually according to the tail length and the amount of DNA present in the tail. Each comet was given an arbitrary value of 0–4 (0, undamaged; 4, maximally damaged), as described by Collins et al.. Damage score was thus assigned to each sample and can range from 0 (completely undamaged: 100 cells × 0) to 400 (with maximum damage: 100 cells × 4). International guidelines and recommendations for the comet assay consider that visual scoring of comets is a well-validated evaluation method, as it is highly correlated with computer-based image analysis."}, "T24 (bladder cancer)": {"test_system": "T24 (bladder cancer)", "assay": "XTT cell viability assay, T24", "settings": "for IC50: Homo sapiens, XTT", "experimental": "The human cell lines MCF-7 (breast adenocarcinoma), HepG2 (hepatoma), T24 (bladder cancer), CACO-2 (colorectal adenocarcinoma) and MRC5 (lung normal fibroblast) were obtained from the Rio de Janeiro Cell Bank (Rio de Janeiro, RJ, Brazil). The HCT116 cell (colorectal carcinoma), and HT29 cell (colorectal adenocarcinoma) were kindly provided by Dr. Annette K. Larsen (Institut National de la Santé et de la Recherche Médicale - INSERM, Paris, França). All cell lines except MCF-7 were grown in DMEM supplemented with 10% or 20% (for CACO-2) FBS, 100 units.mL^-1 penicillin and 100 μg.mL^-1 streptomycin at 37°C in a humidified atmosphere of 5% CO2. MCF-7 cells were maintained in RPMI-1640 supplemented with 20% FBS at the same conditions described above.\nThe cytotoxic potential of the TTHL was evaluated by the XTT assay in human tumor cell lines as well as in MRC5 normal fibroblasts. Cells (1 × 10^4 cells) were seeded on 96-well plates in growth medium and incubated overnight. Afterwards, TTHL (0.5, 1.0, 2.5, 5.0, and 10 μg/mL) was added to each well and incubated for 24, 48, 72, and 120 h. Mitoxantrone, a cytostatic anthracenedione that intercalates in DNA and increases the incidence of double-strand breaks by stabilizing the cleavable complex of topoisomerase II and DNA, was used as positive control. At the end of each treatment, cell viability was assessed according to the manufacturer’s instructions. Briefly, after discarding the medium, 1 mL of XTT labeling mixture was added to the cells and incubated for 2 h at 37°C. Absorbance was measured with a SpectraMax reader (Bio-Rad, USA) at a test wavelength of 492 nm (A492) and a reference wavelength of 690 nm (A690). The final result corresponds to A492-A690. The absorbance of negative control cells was set as 100% viability, and the values for treated cells were calculated as a percentage of the control.\nThe IC20, IC50, and IC80 values and their 95% confidence intervals (CI 95%) were obtained by nonlinear regression using GraphPad Prism v5 program (Intuitive Software for Science, San Diego, CA, USA). Selective index (SI) was calculated by IC50 in MRC5 cells/IC50 in tumoral cells. All experiments were independently repeated at least three times, with triplicate samples for each treatment. Results are expressed as means ± standard deviation (SD). Data were analyzed by one-way analysis of variance (ANOVA), and means were compared using Tukey test, with P ≤ 0.05 considered as statistically significant."}},
  "data": [
    {"smiles": "C=C(C)[C@@H]1CC[C@@]2(C)[C@H]1[C@H]1CC[C@@H]3[C@@]4(C)CC[C@H](O)C(C)(C)[C@@H]4[C@H](O)C[C@@]3(C)[C@]1(C)C[C@@H]2O", "note": "[TTHL, 3β,6β,16β-trihydroxy-lup-20(29)-ene]", "values": [
      {"measurement": "apoptosis induced (% of MCF-7 cells)", "setting": "MCF-7 cells [1]; TTHL at IC50", "value": 14, "unit": "%"},
      {"measurement": "percentage of necrotic cells (labeled with 7-AAD)", "setting": "MCF-7 cells [1]; TTHL at IC50", "value": "less than 5%"},
      {"measurement": "cells in early apoptosis (labeled with annexin V-PE)", "setting": "MCF-7 cells [1]; TTHL at IC80", "value": "approximately 55%"},
      {"measurement": "cells in late apoptosis (labeled with both annexin V-PE and 7-AAD)", "setting": "MCF-7 cells [1]; TTHL at IC80", "value": 15, "unit": "%"},
      {"measurement": "percentage of necrotic cells (labeled with 7-AAD)", "setting": "MCF-7 cells [1]; TTHL at IC80", "value": "less than 5%"},
      {"measurement": "DNA damage (alkaline comet assay)", "setting": "MCF-7 cells [2]; TTHL at IC20", "value": "does not generate DNA-strand breaks"},
      {"measurement": "DNA damage (alkaline comet assay)", "setting": "MCF-7 cells [2]; TTHL at IC50", "value": "induces signifcant DNA damage"},
      {"measurement": "DNA damage (alkaline comet assay)", "setting": "MCF-7 cells [2]; TTHL at IC80", "value": "induces signifcant DNA damage"},
      {"measurement": "IC50", "setting": "T24 (bladder cancer); T24, 24 h treatment", "value": "5.55 ± 0.64", "unit": "µg/mL"},
      {"measurement": "IC50", "setting": "T24 (bladder cancer); T24, 48 h treatment", "value": "5.2 ± 0.42", "unit": "µg/mL"},
      {"measurement": "IC50", "setting": "T24 (bladder cancer); T24, 72 h treatment", "value": "1.09 ± 0.14", "unit": "µg/mL"},
      {"measurement": "IC50", "setting": "T24 (bladder cancer); T24, 120 h treatment", "value": "0.39 ± 0.1", "unit": "µg/mL"},
      {"measurement": "Selectivity index (SI)", "setting": "T24 (bladder cancer); IC50 in MRC5 cells/IC50 in T24, 24 h", "value": 1.5, "unit": "X"},
      {"measurement": "Selectivity index (SI)", "setting": "T24 (bladder cancer); IC50 in MRC5 cells/IC50 in T24, 48 h", "value": 1.5, "unit": "X"},
      {"measurement": "Selectivity index (SI)", "setting": "T24 (bladder cancer); IC50 in MRC5 cells/IC50 in T24, 72 h", "value": 7, "unit": "X"},
      {"measurement": "Selectivity index (SI)", "setting": "T24 (bladder cancer); IC50 in MRC5 cells/IC50 in T24, 120 h", "value": 17, "unit": "X"}
    ]}
  ]
}
